Here are results for six compounds from PMC11062922 (Nature Chemical Biology, 2023).

The target of test [1] is T1, endogenous kinases and other proteins enriched by Kinobeads from mixed cancer cell lysates (Homo sapiens, UniProt Q9H2G2).
T1 construct: endogenous in cells
Put plainly: Kinobeads pulldown, full dose-response (eight doses).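 Further: competition with Kinobeads ε after inhibitor preincubation in lysate (5 mg/ml protein) for 45 min at 4 °C, DMSO control, doses 0.3–1,000 nM, label-free LC–MS/MS quantification.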 The format is binding. Conditions: target SLK.

Test [2] concerns the target T2, endogenous kinases and other proteins enriched by Kinobeads from mixed cancer cell lysates (Homo sapiens, UniProt O15530).
T2 construct: endogenous in cells
The description is as above. The format is binding. The following applies: target PDPK1;PDPK2P.

For test [3], the target named is T3, endogenous kinases and other proteins enriched by Kinobeads from mixed cancer cell lysates (Homo sapiens, UniProt P35916).
T3 construct: endogenous in cells
The description is as above. The following applies: target FLT4. The test is classed as binding.

Test [4] concerns the target T4, endogenous kinases and other proteins enriched by Kinobeads from mixed cancer cell lysates (Homo sapiens, UniProt Q9BZL6).
T4 construct: endogenous in cells
The description is as above. The format is binding. The following applies: target PRKD2.

The target of test [5] is T5, endogenous kinases and other proteins enriched by Kinobeads from mixed cancer cell lysates (Homo sapiens, UniProt O14965).
T5 construct: endogenous in cells
The test is described as above. The format is binding. The following applies: target AURKA.

Test [6] concerns the target T6, endogenous kinases and other proteins enriched by Kinobeads from mixed cancer cell lysates (Homo sapiens, UniProt Q9H0K1).
T6 construct: endogenous in cells
The test is described as above. The test is classed as binding. Conditions: target SIK2.

Test [7] deals with T7, endogenous kinases and other proteins enriched by Kinobeads from mixed cancer cell lysates (Homo sapiens, UniProt Q13873).
T7 construct: endogenous in cells
The description is as above. The test is classed as binding. The following applies: target BMPR2.

Test [8] addresses T8, endogenous kinases and other proteins enriched by Kinobeads from mixed cancer cell lysates (Homo sapiens, UniProt Q2M2I8).
T8 construct: to maximize the representation of endogenous proteins; endogenous in cells
The test is described as above. The test is classed as binding. The following applies: target AAK1.

Another test deals with CSNK2A2 (Homo sapiens, UniProt P19784). The test can be described thus: NanoBRET in-cell target engagement in HEK293T cells: CSNK2A2. The format is cell-based. Also on record: full-length PKN3, CSNK2A1 or CSNK2A2 ORF; host or cells: HEK293T. As for the experimental part:
The NanoBRET assay was performed as described previously[28],[58]. In brief, full-length PKN3, CSNK2A1 or CSNK2A2 ORF (PKN3 vector was a kind gift of Promega, Vectors for […]: NV2981, NV1191) cloned in frame with a C-terminal NanoLuc-fusion, respectively, were transfected into HEK293T cells using FuGENE HD (Promega, E2312) and proteins were allowed to express for 20 h. Serially diluted inhibitor and NanoBRET Kinase Tracer K5 (Promega, N2530) at 500 nM (PKN3) or NanoBRET Kinase Tracer K10 (Promega, N2840) at 500 nM ([…]) were pipetted into 384-well plates using an Echo acoustic dispenser (Labcyte). The PKN3, CSNK2A1 or CSNK2A2 transfected cells were added at a density of 2 × 10^5 cells per ml after trypsinization and resuspending in Opti-MEM without phenol red (Life Technologies). The system was allowed to equilibrate for 2 h at 37 °C and 5% CO2 before BRET measurements. BRET signaling was measured by adding NanoBRET NanoGlo Substrate and Extracellular NanoLuc Inhibitor (Promega) according to the manufacturer’s protocol. Filtered luminescence was measured on a PHERAstar plate reader (BMG Labtech) equipped with a luminescence filter pair (450 nm BP filter (donor) and 610 LP filter (acceptor)). Competitive displacement data were then graphed using GraphPad Prism software (v.5.01) using a three-parameter curve fit with the following equation Y=bottom+(top−bottom)/1+10^logIC50−X×hillslope
Experiments were performed with at least two biological and two technical replicates.

In test [9] the target is T9, endogenous kinases and other proteins enriched by Kinobeads from mixed lysates of K-562, COLO-205, MV-4-11, SK-N-BE(2) and OVCAR-8 (Homo sapiens, UniProt P12931).
T9 construct: to maximize the representation of endogenous proteins; endogenous in cells
Put plainly: Kinobeads competition binding profiling, two doses (100 nM and 1 µM).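 Further: inhibitor preincubated 45 min at 4 °C in cell lysate, then bead pulldown. Bound protein quantified by label-free mass spectrometry relative to DMSO vehicle control.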

Test [10] deals with T10, endogenous kinases and other proteins enriched by Kinobeads from mixed lysates of K-562, COLO-205, MV-4-11, SK-N-BE(2) and OVCAR-8 (Homo sapiens, UniProt P06239).
T10 construct: endogenous in cells
The test is described as above.

For test [11], the target named is T11, endogenous kinases and other proteins enriched by Kinobeads from mixed lysates of K-562, COLO-205, MV-4-11, SK-N-BE(2) and OVCAR-8 (Homo sapiens, UniProt P23458).
T11 construct: to maximize the representation of endogenous proteins; endogenous in cells
The test is described as above.

The next test concerns the target T12, SYK (Homo sapiens, UniProt P43405).
T12 construct: endogenous in cells
The test can be described thus: Kinobeads two-dose competition binding: SYK.

The target of the next test is T13, MAPKAPK2 (Homo sapiens, UniProt P49137).
T13 construct: endogenous in cells
The test can be described thus: Kinobeads full dose-response competition binding: MAPKAPK2. Conditions: Gene Name MAPKAPK2.

Another test concerns the target T14, GSK3B (Homo sapiens, UniProt P49841).
T14 construct: endogenous in cells
Put plainly: Kinobeads full dose-response competition binding: GSK3B. The following applies: Gene Name GSK3B; for Relative Intensity 0.3nM: 0.3nM compound; for Relative Intensity 0.3nM / Relative Intensity 1nM / Relative Intensity 3nM / Relative Intensity 10nM / Relative Intensity 30nM / Relative Intensity 100nM / Relative Intensity 300nM / Relative Intensity 1000nM: DMSO = 1; for Relative Intensity 1nM: 1nM compound; for Relative Intensity 3nM: 3nM compound; for Relative Intensity 10nM: 10nM compound; for Relative Intensity 30nM: 30nM compound; for Relative Intensity 100nM: 100nM compound; for Relative Intensity 300nM: 300nM compound; for Relative Intensity 1000nM: 1000nM compound; for Kd: EC50 with Correction, read-out: apparent Kd; for Kd / EC50: doses in nM; for EC50: eight-dose curve fit.

The next test concerns the target T15, EPHA4 (Homo sapiens, UniProt P54764).
T15 construct: endogenous in cells
The test can be described thus: Kinobeads two-dose competition binding: EPHA4. The following applies: read-out: Lestaurtinib Drugmatrix value, Gene Name EPHA4.

Another test concerns the target T16, PRKCD (Homo sapiens, UniProt Q05655).
T16 construct: endogenous in cells
Put plainly: Kinobeads full dose-response competition binding: PRKCD. The following applies: Gene Name PRKCD.

Setting [12] is: EC50 with Correction, doses in nM, read-out: apparent Kd.
The mark [13] stands for this setting: eight-dose curve fit, doses in nM.

Read-outs that look alike come from different tables or passages of the source.

T16 sequence (Q05655 whole entry): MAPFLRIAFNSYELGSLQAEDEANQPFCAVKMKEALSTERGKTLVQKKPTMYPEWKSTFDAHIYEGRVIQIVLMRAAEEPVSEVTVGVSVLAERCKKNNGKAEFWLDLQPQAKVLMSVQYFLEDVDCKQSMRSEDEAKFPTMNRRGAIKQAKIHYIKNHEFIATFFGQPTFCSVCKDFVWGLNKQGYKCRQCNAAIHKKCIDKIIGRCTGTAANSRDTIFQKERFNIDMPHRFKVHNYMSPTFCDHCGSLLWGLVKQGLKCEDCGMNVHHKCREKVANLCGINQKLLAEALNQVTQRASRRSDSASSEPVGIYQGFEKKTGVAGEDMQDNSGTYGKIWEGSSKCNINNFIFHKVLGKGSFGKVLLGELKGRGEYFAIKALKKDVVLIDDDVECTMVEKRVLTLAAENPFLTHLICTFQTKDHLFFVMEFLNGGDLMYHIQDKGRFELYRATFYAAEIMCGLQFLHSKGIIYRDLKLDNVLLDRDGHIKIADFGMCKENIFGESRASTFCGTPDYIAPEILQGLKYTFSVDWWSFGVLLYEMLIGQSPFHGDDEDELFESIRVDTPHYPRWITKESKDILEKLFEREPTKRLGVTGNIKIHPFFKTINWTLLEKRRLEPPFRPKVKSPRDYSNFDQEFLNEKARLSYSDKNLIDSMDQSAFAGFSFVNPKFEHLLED
T14 sequence (P49841 whole entry): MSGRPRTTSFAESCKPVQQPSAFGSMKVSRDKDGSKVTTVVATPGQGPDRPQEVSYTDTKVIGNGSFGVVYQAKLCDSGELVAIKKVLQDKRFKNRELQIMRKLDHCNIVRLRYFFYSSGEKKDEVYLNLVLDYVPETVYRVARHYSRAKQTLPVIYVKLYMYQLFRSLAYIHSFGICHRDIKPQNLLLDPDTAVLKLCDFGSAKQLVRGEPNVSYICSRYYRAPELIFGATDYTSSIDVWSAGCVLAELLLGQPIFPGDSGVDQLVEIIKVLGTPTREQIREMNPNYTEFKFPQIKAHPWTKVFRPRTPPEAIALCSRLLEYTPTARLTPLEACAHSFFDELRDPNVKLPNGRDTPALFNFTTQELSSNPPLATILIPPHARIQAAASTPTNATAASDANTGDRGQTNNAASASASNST
T13 sequence (P49137 whole entry): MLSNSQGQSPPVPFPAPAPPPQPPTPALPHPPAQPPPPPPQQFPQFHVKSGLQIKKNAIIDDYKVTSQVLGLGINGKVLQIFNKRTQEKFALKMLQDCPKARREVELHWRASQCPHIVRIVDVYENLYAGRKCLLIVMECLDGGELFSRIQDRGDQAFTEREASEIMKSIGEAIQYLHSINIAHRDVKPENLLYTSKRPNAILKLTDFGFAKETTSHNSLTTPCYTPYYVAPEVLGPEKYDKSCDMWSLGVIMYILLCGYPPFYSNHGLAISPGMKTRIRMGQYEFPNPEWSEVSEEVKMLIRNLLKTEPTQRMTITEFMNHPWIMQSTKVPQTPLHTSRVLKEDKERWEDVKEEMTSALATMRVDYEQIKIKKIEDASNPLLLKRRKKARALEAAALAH
CSNK2A2, sequence (P19784 whole entry, the tested form may be a part): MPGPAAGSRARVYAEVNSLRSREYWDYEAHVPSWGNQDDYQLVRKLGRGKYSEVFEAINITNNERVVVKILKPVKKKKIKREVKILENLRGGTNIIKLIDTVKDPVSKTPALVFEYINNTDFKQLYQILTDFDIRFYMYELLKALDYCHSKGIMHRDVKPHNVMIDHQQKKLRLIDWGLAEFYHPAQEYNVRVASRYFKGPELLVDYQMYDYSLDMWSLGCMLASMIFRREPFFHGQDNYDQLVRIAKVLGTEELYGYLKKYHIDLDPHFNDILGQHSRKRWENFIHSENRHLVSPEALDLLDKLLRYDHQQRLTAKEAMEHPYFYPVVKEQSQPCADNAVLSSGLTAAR
T8 sequence (Q2M2I8 whole entry): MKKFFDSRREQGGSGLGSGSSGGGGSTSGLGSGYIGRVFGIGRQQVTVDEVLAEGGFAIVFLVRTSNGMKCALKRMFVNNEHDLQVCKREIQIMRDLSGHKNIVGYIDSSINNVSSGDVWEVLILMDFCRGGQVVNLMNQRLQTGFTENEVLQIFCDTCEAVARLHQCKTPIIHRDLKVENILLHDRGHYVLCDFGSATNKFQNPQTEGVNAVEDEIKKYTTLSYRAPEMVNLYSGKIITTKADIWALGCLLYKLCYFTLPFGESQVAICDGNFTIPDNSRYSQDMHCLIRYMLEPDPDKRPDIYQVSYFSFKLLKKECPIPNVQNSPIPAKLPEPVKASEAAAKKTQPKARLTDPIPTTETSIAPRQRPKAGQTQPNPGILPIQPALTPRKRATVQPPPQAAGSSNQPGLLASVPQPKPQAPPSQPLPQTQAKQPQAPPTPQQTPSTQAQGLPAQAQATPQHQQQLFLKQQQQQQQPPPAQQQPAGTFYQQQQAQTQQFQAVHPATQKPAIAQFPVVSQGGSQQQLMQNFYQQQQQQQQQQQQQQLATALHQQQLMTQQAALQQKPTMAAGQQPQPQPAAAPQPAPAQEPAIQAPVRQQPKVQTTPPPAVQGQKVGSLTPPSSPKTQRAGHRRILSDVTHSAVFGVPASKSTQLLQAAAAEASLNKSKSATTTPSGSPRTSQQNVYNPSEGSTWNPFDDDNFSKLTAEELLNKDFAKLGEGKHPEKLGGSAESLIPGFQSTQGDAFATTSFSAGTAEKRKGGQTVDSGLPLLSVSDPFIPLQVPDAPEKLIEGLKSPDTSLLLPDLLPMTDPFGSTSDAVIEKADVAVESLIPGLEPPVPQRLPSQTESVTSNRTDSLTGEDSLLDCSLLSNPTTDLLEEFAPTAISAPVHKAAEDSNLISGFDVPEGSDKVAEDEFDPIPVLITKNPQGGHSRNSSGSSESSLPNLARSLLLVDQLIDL
T1 sequence (Q9H2G2 whole entry): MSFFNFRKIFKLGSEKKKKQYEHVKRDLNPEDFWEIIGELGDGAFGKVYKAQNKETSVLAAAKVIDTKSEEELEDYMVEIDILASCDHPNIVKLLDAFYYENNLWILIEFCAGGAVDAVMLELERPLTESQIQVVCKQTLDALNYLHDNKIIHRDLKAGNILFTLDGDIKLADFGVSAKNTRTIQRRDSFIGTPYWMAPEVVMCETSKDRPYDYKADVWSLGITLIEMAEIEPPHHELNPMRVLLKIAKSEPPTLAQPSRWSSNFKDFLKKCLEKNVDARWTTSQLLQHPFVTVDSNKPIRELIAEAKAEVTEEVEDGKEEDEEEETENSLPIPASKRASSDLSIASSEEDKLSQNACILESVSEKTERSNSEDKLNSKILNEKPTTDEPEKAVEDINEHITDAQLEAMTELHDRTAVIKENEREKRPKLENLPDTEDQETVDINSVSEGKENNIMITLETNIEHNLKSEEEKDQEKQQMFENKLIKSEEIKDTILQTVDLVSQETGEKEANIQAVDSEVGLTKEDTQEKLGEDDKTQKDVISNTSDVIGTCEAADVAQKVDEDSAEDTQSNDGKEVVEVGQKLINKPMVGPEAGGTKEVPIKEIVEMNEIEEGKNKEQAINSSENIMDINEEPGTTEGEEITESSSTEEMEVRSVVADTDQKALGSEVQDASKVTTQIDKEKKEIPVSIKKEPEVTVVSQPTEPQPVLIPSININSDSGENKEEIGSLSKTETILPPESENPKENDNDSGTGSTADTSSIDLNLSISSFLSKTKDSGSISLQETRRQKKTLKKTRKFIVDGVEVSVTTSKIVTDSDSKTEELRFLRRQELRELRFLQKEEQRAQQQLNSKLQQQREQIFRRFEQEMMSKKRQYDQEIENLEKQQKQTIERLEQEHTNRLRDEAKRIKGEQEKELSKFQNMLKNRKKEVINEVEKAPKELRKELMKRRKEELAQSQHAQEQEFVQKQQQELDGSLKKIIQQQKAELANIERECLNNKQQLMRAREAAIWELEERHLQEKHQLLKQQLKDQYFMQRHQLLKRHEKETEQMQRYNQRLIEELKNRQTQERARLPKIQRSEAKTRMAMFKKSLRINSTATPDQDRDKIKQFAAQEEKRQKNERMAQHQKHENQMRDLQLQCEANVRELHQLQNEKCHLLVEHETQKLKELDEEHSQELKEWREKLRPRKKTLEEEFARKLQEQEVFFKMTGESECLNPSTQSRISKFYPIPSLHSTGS
T9 sequence (P12931 whole entry): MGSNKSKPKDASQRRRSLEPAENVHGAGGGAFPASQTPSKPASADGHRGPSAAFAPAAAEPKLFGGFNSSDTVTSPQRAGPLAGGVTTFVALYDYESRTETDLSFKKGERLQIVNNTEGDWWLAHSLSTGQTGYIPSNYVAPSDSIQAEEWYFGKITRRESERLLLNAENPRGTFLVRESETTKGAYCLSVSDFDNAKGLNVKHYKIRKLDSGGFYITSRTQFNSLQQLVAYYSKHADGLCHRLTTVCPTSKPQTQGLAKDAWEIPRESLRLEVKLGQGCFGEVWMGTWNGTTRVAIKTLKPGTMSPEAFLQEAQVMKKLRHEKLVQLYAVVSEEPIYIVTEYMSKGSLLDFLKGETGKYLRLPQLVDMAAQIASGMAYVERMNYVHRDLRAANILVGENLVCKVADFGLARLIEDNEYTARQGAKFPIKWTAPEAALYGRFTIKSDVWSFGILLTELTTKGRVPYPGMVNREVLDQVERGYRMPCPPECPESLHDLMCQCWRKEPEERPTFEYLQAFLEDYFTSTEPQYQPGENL
T5 sequence (O14965 whole entry): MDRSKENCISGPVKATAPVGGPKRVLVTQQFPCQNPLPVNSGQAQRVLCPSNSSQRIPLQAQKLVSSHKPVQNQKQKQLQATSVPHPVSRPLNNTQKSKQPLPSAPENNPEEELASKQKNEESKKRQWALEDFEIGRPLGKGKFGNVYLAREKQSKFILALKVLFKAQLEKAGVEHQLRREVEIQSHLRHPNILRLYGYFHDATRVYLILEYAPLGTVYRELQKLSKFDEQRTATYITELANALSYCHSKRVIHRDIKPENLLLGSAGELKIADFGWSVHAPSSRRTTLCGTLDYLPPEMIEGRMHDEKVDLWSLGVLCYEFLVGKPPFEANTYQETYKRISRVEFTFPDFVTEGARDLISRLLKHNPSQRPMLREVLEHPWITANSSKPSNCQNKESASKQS

As usually defined, the EC50 is the concentration at which the effect is half-maximal. With `Cn1cc(-c2nc(N[C@@H]3CCCC[C@@H]3N)c(F)c3c2C(=O)NC3)cn1` [TAK659], the EC50 in test [1] was determined as 516 nM; in [2], 639 nM; in test [3] it was 564 nM; in test [4] it was 1010 nM; in test [5], 1280 nM; in test [6] it was 260 nM. The half-maximal effective concentration (EC50) in test [7] worked out at 325 nM; in [8], 997 nM. Also, the Kd in test [1] (read-out: apparent Kd) is 516 nM; in test [2] (read-out: apparent Kd), 639 nM; in [3] (read-out: apparent Kd), 308 nM; in [4] (read-out: apparent Kd), 895 nM; in [5] (read-out: apparent Kd), 590 nM; in test [6] (read-out: apparent Kd), 140 nM. In addition, the Kd stood at 257 nM in test [7] (read-out: apparent Kd) and 720 nM in test [8] (read-out: apparent Kd).
On to `COc1cc(Nc2ncc3c(C)nc(-c4cc5ccccc5[nH]4)n3n2)cc(OC)c1OC` [GW869516X], for which the IC50 at CSNK2A2 (CSNK2A2, replicate 1, read-out: NanoBRET Rep1) came to 135 nM; on CSNK2A2 (CSNK2A2, replicate 2, read-out: NanoBRET Rep2), 503 nM; at CSNK2A2 (HEK293T cells, in-cell target engagement, read-out: IC50 CSNK2A2 NanoBRET), 319 nM. In addition, the “Kinobeads Data” value (in [9] (SRC); in test [10] (LCK); in test [11] (JAK1(JH2domain-pseudokinase)); at SYK (SYK)) was “no target” each time.
In the case of `NCc1ccc(-c2nc(-c3ccncc3)c(-c3ccc(Cl)c(O)c3)[nH]2)cc1` [SB-476429-A], at MAPKAPK2 (0.3nM compound, DMSO = 1), the “Relative Intensity 0.3nM” value is on record as 1.233. For the same compound, the “Relative Intensity 1nM” value on MAPKAPK2 (1nM compound, DMSO = 1) is given as 1.094. Also, at MAPKAPK2 (3nM compound, DMSO = 1), the “Relative Intensity 3nM” value is on record as 1.023. The “Relative Intensity 10nM” value on MAPKAPK2 (10nM compound, DMSO = 1) is 1.156. Further, at MAPKAPK2 (30nM compound, DMSO = 1), the “Relative Intensity 30nM” value worked out at 0.8314. Moreover, the “Relative Intensity 100nM” value on MAPKAPK2 (100nM compound, DMSO = 1) turned out to be 0.6869. In addition, the “Relative Intensity 300nM” value on MAPKAPK2 (300nM compound, DMSO = 1) came to 0.5275. Moreover, the “Relative Intensity 1000nM” value on MAPKAPK2 (1000nM compound, DMSO = 1) is recorded as 0. Besides, the Kd at MAPKAPK2 (setting [12]) came out at 174 nM. The compound further came in with an EC50 on MAPKAPK2 (setting [13]) of 174 nM.
Regarding `CCn1c(-c2nonc2N)nc2c(C#CC(C)(C)O)nc(OCCNC)cc21` [GSK949675A], on GSK3B, the “Relative Intensity 0.3nM” value was 0.987, the “Relative Intensity 1nM” value came out at 0.9621, the “Relative Intensity 3nM” value came to 1.1 and the “Relative Intensity 10nM” value is listed as 0.9042. In addition, on GSK3B, the “Relative Intensity 30nM” value came out at 0.9241, the “Relative Intensity 100nM” value amounted to 0.7846, the “Relative Intensity 300nM” value is given as 0.5456 and the “Relative Intensity 1000nM” value is 0.3036. At GSK3B, the Kd came to 171 nM and the EC50 is 322 nM.
On to `C[C@]12O[C@H](C[C@]1(O)CO)n1c3ccccc3c3c4c(c5c6ccccc6n2c5c31)CNC4=O` [Lestaurtinib], for which the potency estimated from few doses was 618 nM in [9] (read-out: Lestaurtinib Drugmatrix value, Gene Name SRC); 550 nM in test [10] (read-out: Lestaurtinib Drugmatrix value (apparent Kd), Gene Name LCK, target LCK, each column = one Lestaurtinib control run_replicate); 881 nM in test [11] (read-out: Lestaurtinib Drugmatrix value (apparent Kd), Gene Name JAK1, target JAK1, each column = one Lestaurtinib control run_replicate); 157 nM on SYK (read-out: Lestaurtinib Drugmatrix value, Gene Name SYK); 268 nM on EPHA4.
On to `CCn1c(-c2nonc2N)nc2c(C#CC(C)(C)O)nc(OCCN)cc21` [GSK902056A], for which the “Relative Intensity 0.3nM” value is listed as 1.05 at GSK3B and 0.9769 at PRKCD (0.3nM compound, DMSO = 1). Moreover, the “Relative Intensity 1nM” value on GSK3B is 1.092; on PRKCD (1nM compound, DMSO = 1), 1.01. The “Relative Intensity 3nM” value at GSK3B is 1.084; on PRKCD (3nM compound, DMSO = 1), 1.114. Also, the “Relative Intensity 10nM” value amounted to 0.9805 on GSK3B and 1.044 at PRKCD (10nM compound, DMSO = 1). In addition, the “Relative Intensity 30nM” value turned out to be 0.9007 at GSK3B and 0.8254 on PRKCD (30nM compound, DMSO = 1). For the same compound, the “Relative Intensity 100nM” value is on record as 0.8389 at GSK3B and 0.6161 at PRKCD (100nM compound, DMSO = 1). In addition, the “Relative Intensity 300nM” value on GSK3B came to 0.5163; on PRKCD (300nM compound, DMSO = 1), 0.3888. The “Relative Intensity 1000nM” value at GSK3B is listed as 0.2905; at PRKCD (1000nM compound, DMSO = 1), 0.1734. Also, the Kd on GSK3B was found to be 288 nM; at PRKCD (setting [12]) it was 124 nM. Moreover, the EC50 worked out at 296 nM at GSK3B and 124 nM at PRKCD (setting [13]).
